Laboratory results published in patent publication US20230091225A1, “Bifunctional chimeric heterocyclic compounds for targeted degradation of androgen receptors and use thereof” (HINOVA PHARMACEUTICALS INC., priority 2019, published 2023).
Like-named read-outs stand apart in the source and are kept apart here.

Molecular target: T1, androgen receptor (AR) (Homo sapiens, UniProt P10275)
T1 sequence (P10275 1-920): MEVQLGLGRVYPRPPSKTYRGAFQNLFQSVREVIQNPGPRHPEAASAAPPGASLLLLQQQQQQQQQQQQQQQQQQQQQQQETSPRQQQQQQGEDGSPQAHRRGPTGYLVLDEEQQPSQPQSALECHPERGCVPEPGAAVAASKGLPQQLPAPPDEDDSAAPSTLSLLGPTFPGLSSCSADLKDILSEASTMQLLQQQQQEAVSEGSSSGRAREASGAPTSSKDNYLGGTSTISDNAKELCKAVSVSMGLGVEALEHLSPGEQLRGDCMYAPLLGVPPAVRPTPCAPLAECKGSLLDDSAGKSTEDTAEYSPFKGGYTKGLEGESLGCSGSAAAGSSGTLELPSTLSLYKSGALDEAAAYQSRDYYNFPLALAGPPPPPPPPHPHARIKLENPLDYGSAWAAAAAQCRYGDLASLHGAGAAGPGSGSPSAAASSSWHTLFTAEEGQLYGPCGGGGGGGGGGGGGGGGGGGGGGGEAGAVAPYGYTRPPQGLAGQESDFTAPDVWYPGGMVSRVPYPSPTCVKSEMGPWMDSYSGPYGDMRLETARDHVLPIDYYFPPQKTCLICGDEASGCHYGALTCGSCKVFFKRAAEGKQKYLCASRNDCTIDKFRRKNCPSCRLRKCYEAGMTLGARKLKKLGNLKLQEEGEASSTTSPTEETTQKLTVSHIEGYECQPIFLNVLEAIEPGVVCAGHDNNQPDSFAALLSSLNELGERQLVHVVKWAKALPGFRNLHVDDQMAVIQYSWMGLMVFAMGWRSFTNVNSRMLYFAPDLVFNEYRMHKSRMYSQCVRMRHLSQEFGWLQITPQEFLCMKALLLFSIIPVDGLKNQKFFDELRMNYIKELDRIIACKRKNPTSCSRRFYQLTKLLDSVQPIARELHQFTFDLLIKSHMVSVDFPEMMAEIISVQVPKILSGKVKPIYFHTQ
Experiment: Degradation of androgen receptor (AR) protein in VCaP cells by ELISA
Assay type: cell-based
Settings: for DC50: read-out: DC50; for Dmax: VCaP

[1] = AR degradation, VCaP cells, 16 h, ELISA, Table 3-1
[2] = AR degradation, VCaP cells, 16 h, ELISA, Table 3-1, read-out: Dmax (%)
[3] = AR degradation, VCaP cells, 16 h, ELISA, Table 3-2
[4] = AR degradation, VCaP cells, 16 h, ELISA, Table 3-2, read-out: Dmax (%)

| DC50 [1] [µM] | Dmax [2] [%] | Structure (SMILES) | other results |
| --- | --- | --- | --- |
| < 0.01 | > 80 | N#Cc1ccc(O[C@H]2CC[C@H](NC(=O)c3cnc(N4CCC5(CN(CC6CCN(c7cc8c(cc7F)C(=O)N(C7CCC(=O)NC7=O)C8=O)CC6)C5)C4)cn3)CC2)cc1Cl (stereo partly drawn) [Compound 189, N-((1r,4r)-4-(3-chloro-4-cyanophenoxy)cyclohexyl)-5-(2-((1-(2-(2,6-dioxopiperidin-3-yl)-6-fluoro-1,3-dioxoisoindolin-5-yl)piperidine-4-yl)methyl)-2,6-diazaspiro[3.4]octan-6-yl)pyrazine-2-carboxamide] |  |
| 0.01 to 0.1 | > 80 | CC1(C)[C@H](Oc2ccc(C#N)c(Cl)c2)C(C)(C)[C@H]1N1Cc2nc(N3CCC(CN4CCN(c5cc6c(cc5F)C(=O)N(C5CCC(=O)NC5=O)C6=O)CC4)CC3)ncc2C1=O (stereo partly drawn) [Compound 382] |  |
| 0.01 to 0.1 | 60 to 80 | N#Cc1ccc(O[C@H]2CC[C@H](NC(=O)c3ccc(N4CCN(C[C@@H]5[C@H]6CN(c7cc8c(cc7F)C(=O)N(C7CCC(=O)NC7=O)C8=O)C[C@@H]56)CC4)cn3)CC2)cc1Cl (stereo partly drawn) [Compound 286] |  |
| < 0.01 | > 80 | C[C@H]1CN(C[C@@H]2[C@H]3CN(c4cc5c(cc4F)C(=O)N(C4CCC(=O)NC4=O)C5=O)C[C@@H]23)CCN1c1ccc(C(=O)N[C@H]2CC[C@H](Oc3ccc(C#N)c(Cl)c3)CC2)nn1 (stereo partly drawn) [Compound 170] |  |
|  |  | N#Cc1ccc(O[C@H]2CC[C@H](NC(=O)c3ccn([C@H]4CC[C@H](CN5CCC6(CC5)CN(c5ccc7c(c5)C(=O)N(C5CCC(=O)NC5=O)C7=O)C6)CC4)n3)CC2)cc1Cl (stereo partly drawn) [Compound 416, N-((1r,4R)-4-(3-chloro-4-cyanophenoxy)cyclohexyl)-1-((1r,4R)-4-((2-(2-(2,6-dioxopiperidin-3-yl)-1,3-dioxoisoindolin-5-yl)-2,7-diazaspiro[3.5]nonan-7-yl)methyl)cyclohexyl)-1H-pyrazole-3-formamide] | DC50 [3]: < 0.01 µM; Dmax [4]: > 80% |
|  |  | CC1(C)C(NC(=O)c2ccc(N3CCC(N4CC5(CCN(c6cc7c(cc6F)C(=O)N(C6CCC(=O)NC6=O)C7=O)CC5)C4)CC3)nn2)C(C)(C)C1Oc1ccc(C#N)c(Cl)c1 (stereo not drawn) [Compound 80, N-((1s,3s)-3-(3-chloro-4-cyanophenoxy)-2,2,4,4-tetramethylcyclobutyl)-6-(4-(7-(2-(2,6-dioxopiperidin-3-yl)-6-fluoro-1,3-dioxoisoindolin-5-yl)-2,7-diazaspiro [3.5]nonan-2-yl)piperidin-1-yl)pyridazine-3-formamide] | Dmax (%): +++ (key: ++++: >80%; +++: 80%-60%; ++: 60%-40%; +: <40%); DC50: 0.01 to 0.1 µM |
| < 0.01 | > 80 | N#Cc1ccc(O[C@H]2CC[C@H](NC(=O)c3cnc(N4CC5(CCN(CC6CCN(c7ccc8c(c7)C(=O)N(C7CCC(=O)NC7=O)C8=O)CC6)CC5)C4)cn3)CC2)cc1Cl (stereo partly drawn) [Compound 283, N-((1r,4r)-4-(3-chloro-4-cyanophenoxy)cyclohexyl)-6-(7-((1-(2-(2,6-dioxopiperidin-3-yl)-1,3-dioxoisoindolin-5-yl)piperidine-4-yl)methyl)-2,7-diazaspiro[3.5]nonan-2-yl)pyrazine-3-formamide] |  |
| < 0.01 | > 80 | N#Cc1ccc(O[C@H]2CC[C@H](NC(=O)c3ccc(N4CCN(C5CC6(CCN(c7cc8c(cc7F)C(=O)N(C7CCC(=O)NC7=O)C8=O)CC6)C5)CC4)nn3)CC2)cc1Cl (stereo partly drawn) [Compound 270, N-((1r,4r)-4-(3-chloro-4-cyanophenoxy)cyclohexyl)-6-(4-(7-(2-(2,6-dioxopiperidin-3-yl)-6-fluoro-13-dioxoisoindolin-5-yl) -7-azaspiro[3.5]nonan-2-yl)piperazin-1-yl)pyridazine-3-formamide] |  |
|  |  | N#Cc1ccc(O[C@H]2CC[C@H](NC(=O)c3nnc(N4CCC(CN5CCC6(CC5)CN(c5ccc7c(c5)C(=O)N(C5CCC(=O)NC5=O)C7=O)C6)CC4)o3)CC2)cc1Cl (stereo partly drawn) [Compound 414] | DC50 [3]: < 0.01 µM; Dmax [4]: > 80% |
| 0.1 to 0.3 |  | CC1(C)[C@H](Oc2ccc(C#N)c(Cl)c2)C(C)(C)[C@H]1N1Cc2nc(C#CC3CCC(N4CC5(CCN(c6cc7c(cc6F)C(=O)N(C6CCC(=O)NC6=O)C7=O)C5)C4)CC3)ccc2C1=O (stereo partly drawn) [Compound 370] | Dmax (%) [1]: ++ (60%-40%) |
| < 0.01 | > 80 | N#Cc1ccc(O[C@H]2CC[C@H](NC(=O)c3ccc(N4CCC5(CC4)CC(N4CCN(c6cc7c(cc6F)C(=O)N(C6CCC(=O)NC6=O)C7=O)CC4)C5)nn3)CC2)cc1Cl (stereo partly drawn) [Compound 269] |  |
| < 0.01 | > 80 | N#Cc1ccc(O[C@H]2CC[C@H](NC(=O)c3ccc(N4CC5(CN(C[C@@H]6[C@H]7CN(c8cc9c(cc8F)C(=O)N(C8CCC(=O)NC8=O)C9=O)C[C@@H]67)C5)C4)nn3)CC2)cc1Cl (stereo partly drawn) [Compound 92] |  |
| < 0.01 | > 80 | N#Cc1ccc(O[C@H]2CC[C@H](NC(=O)c3cnc(N4CCC(CN5CCC6(CC5)CN(c5ccc7c(c5)C(=O)N(C5CCC(=O)NC5=O)C7=O)C6)CC4)nc3)CC2)cc1Cl (stereo partly drawn) [Compound 267] |  |
| < 0.01 | > 80 | N#Cc1ccc(O[C@H]2CC[C@H](NC(=O)c3ccc(N4CCC5(CCN(CC6CCN(c7cc8c(cc7F)C(=O)N(C7CCC(=O)NC7=O)C8=O)CC6)CC5)CC4)nn3)CC2)cc1Cl (stereo partly drawn) [Compound 261] |  |
| < 0.01 | > 80 | N#Cc1ccc(O[C@H]2CC[C@H](NC(=O)c3nnc(N4CC5(CCN(C6CCN(c7ccc8c(c7)C(=O)N(C7CCC(=O)NC7=O)C8=O)CC6)CC5)C4)s3)CC2)cc1Cl (stereo partly drawn) [Compound 193, N-((1r,4r)-4-(3-chloro-4-cyanophenoxy)cyclohexyl)-5-(7-(1-(2-(2,6-dioxopiperidin-3-yl)-1,3-dioxoisoindolin-5-yl)piperidine-4-yl)-2,7-diazaspiro[3.5]nonan-2-yl)-1,3,4-thiadiazole-2-carboxamide] |  |
|  |  | Cc1cc(O[C@H]2C(C)(C)[C@H](N3Cc4nc(C#C[C@H]5CC[C@H](N6CCN(c7cc8c(cc7F)C(=O)N(C7CCC(=O)NC7=O)C8=O)CC6)CC5)ccc4C3=O)C2(C)C)ccc1C#N (stereo partly drawn) [Compound 401] | DC50 [3]: 0.01 to 0.1 µM; Dmax: > 80% |

| Structure (SMILES) | DC50 [1] [µM] | Dmax [2] [%] | other results |
| --- | --- | --- | --- |
| CC1(C)[C@H](Oc2ccc(C#N)c(Cl)c2)C(C)(C)[C@H]1N1Cc2nc(C#CC3CCC(N4CC5CC4CN5c4ccc5c(c4)C(=O)N(C4CCC(=O)NC4=O)C5=O)CC3)ccc2C1=O (single isomer, unassigned) [Compound 352, 2-Chloro-4-((1r,3r)-3-(2-((4-(5-(2-(2,6-dioxopiperidin-3-yl)-1,3-dioxoisoindolin-5-yl)-2,5-diazabicyclo[2.2.1]heptan-2-yl)cyclohexyl)ethynyl)-5-oxo-5,7-dihydro-6H-pyrrolo[3,4-b]pyridin-6-yl)-2,2,4,4-tetramethylcyclobutoxy) benzonitrile] | > 0.3 | 40 to 60 |  |
| N#Cc1ccc(O[C@H]2CC[C@H](NC(=O)c3cnn([C@H]4CC[C@H](CN5CCC6(CC5)CN(c5cc7c(cc5F)C(=O)N(C5CCC(=O)NC5=O)C7=O)C6)CC4)c3)CC2)cc1Cl (stereo partly drawn) [Compound 246] | 0.01 to 0.1 |  | Dmax: 60 to 80% |
| CC1(C)[C@H](Oc2ccc(C#N)c(Cl)c2)C(C)(C)[C@H]1N1Cc2nc(C#CC3CCC(N4CCC5(CCN(c6ccc7c(c6)C(=O)N(C6CCC(=O)NC6=O)C7=O)C5)C4)CC3)ccc2C1=O (stereo partly drawn) [Compound 365, 2-Chloro-4-((1r,3r)-3-(2-((4-(7-(2-(2,6-dioxopiperidin-3-yl)-1,3-dioxoisoindolin-5-yl)-2,7-Diazaspiro[4.4]nonan-2-yl)cyclohexyl)ethynyl)-5-oxo-5,7-dihydro-6H-pyrrolo[3,4-b]pyridin-6-yl)-2,2,4,4-tetramethylcyclobutoxy) benzonitrile] | 0.01 to 0.1 |  | Dmax (%) [1]: ++++ (>80%) |
| N#Cc1ccc(O[C@H]2CC[C@H](NC(=O)c3ccc(N4CCN(C[C@@H]5[C@H]6CN(c7cc8c(cc7F)C(=O)N(C7CCC(=O)NC7=O)C8=O)C[C@@H]56)CC4)nn3)CC2)cc1Br (stereo partly drawn) [Compound 126, N-((1r,4r)-4-(3-bromo-4-cyanophenoxy)cyclohexyl)-6-(4-(((1R,5S,6s)-3-(2-(2,6-dioxopiperidin-3-yl)-6-fluoro-1,3-dioxoisoindolin-5-yl)-3-azabicyclo[3.1.0]hexan-6-yl)methyl)piperazin-1-yl)pyridazine-3-amide] | < 0.01 |  | Dmax: > 80% |
| N#Cc1ccc(O[C@H]2CC[C@H](NC(=O)c3ccc(N4CC5(CCN(C6CCN(c7cc8c(cc7F)C(=O)N(C7CCC(=O)NC7=O)C8=O)CC6)CC5)C4)nn3)CC2)cc1Cl (stereo partly drawn) [Compound 97, N-((1r,4r)-4-(3-chloro-4-cyanophenoxy)cyclohexyl)-6-(7-(1-(2-(2,6-dioxopiperidin-3-yl)-6-fluoro-1,3-dioxoisoindolin-5-yl)piperidine-4-yl)-2,7-diazaspiro[3.5]nonan-2-yl)pyridazine-3-carboxamide] | < 0.01 |  | Dmax: > 80% |
